Source: patent US20160256535A1, “HEXAPEPTIDE AND USES THEREOF” (priority 2013, published 2016)
Primed or numbered codes have the meaning given here. No end group written: not given here. FITC′ = not defined here

How the values were obtained:
cells = test: Ability of hexapeptide conjugated to fluorescein to enter cells (immunocytochemistry); type: cell-based; conditions: immunocytochemistry examination
Source text: The test results are positive and confirms the previous data.

sperm = test: Sperm fluorescence microscopy with propidium iodide; type: cell-based, bovine; conditions: 1 mg/ml, 37° C., 1 hour; sperm without red (propidium iodide) fluorescence
Description: Three fresh ejaculate from bovine, obtained from two different bulls, were mixed and diluted in Tris solution with a concentration of 100×10^6 sperm/ml, incubated at 37° C. for 1 hour in the presence of 1 mg/ml of FITC-rMnSOD-LP (hexapeptide) and 1 mg/ml of propidium iodide.
The peptide also enters in the sperm with a non-intact membrane. These sperm must not to be taken into consideration in the penetration study because if the membrane is broken, its permeability is not selective. The hexapeptide enters even in the dead, but for normal diffusion, not for selective activity of intact membranes.

MCF-7 cells = test: Internalization of fluoresceinated hexapeptide by confocal and fluorescence microscopy; type: cell-based, human; conditions: for internalization by confocal microscopy: 0.125 μM, 3 hr
Description: The confocal analysis was performed by placing the cells of human breast cancer (MCF-7, ATCC HTB-22) on suitable slides (MatTek, Ashland Corporation MA, U.S.). The hexapaptide to the concentration of 0.125 μM was then added to the cells.
The protocol used for the internalization of the PEP-6 FAM includes two separate experiments. A first experiment was done using PEP 6-FAM to 92 μM for 3 hr and the internalization was assessed. To these cells, already treated with PEP6-FAM, primary Ab anti-PEP 24 1:20 overnight at 4° C. was added and, as secondary antibody goat anti rabbit fluorescent CF 488A; and to 1 plate, already treated with PEP6 FAM, it was added the primary antibody anti rMnSOD 1:20 overnight and the secondary CF555 rodamynated donkey anti sheep. For 45 min-1 hr.
In the second experiment, the PEP 6-FAM was used at 92 μM to 1 hr and 3 hr with fixation in ethanol and paraformaldehyde, and for both times it was assessed the penetration alone, without the addition of the antibody and with the addition of primary antibody anti rMnSOD with three different dilutions (1500-1:1000-1:2000) in 5% NGS (Normal Goat Serum) in PBS +0.1% Triton overnight at 4° C. and, the secondary antibody anti rhodium CF 555 sheep 1:400 for 45′-1 hr. The nuclei were subsequently stained with 10 μg for ml^−1 DAPI (4′,6-diamidin-2-phenylindole, LIFE™ Thencologies).

Human Normal Lymphocytes = test: Lymphocyte penetration, immunocytochemistry / immunofluorescence; type: cell-based
Description: Human Normal Lymphocytes cells were collected from healthy donors and purified using Ficoll Hystopaque density gradient centrifugation. The cells were cultured at a density of 1×10^6 cells/mL in RPMI media supplemented with 1% Penstrep and 10% FBS in a humidified atmosphere containing 5% CO2 at 37° C.
(§1) A cytospin was used to smear cells onto slides. The smears were fixed in Zamboni solution (4% paraformaldehyde, 15% picric acid) for 60 minutes and then washed with 1×PBS and incubated for five minutes with 3% hydrogen peroxide to quench endogenous peroxidase activity. Immunostaining was performed using the DAKO LSA+System HRP kit. Rabbit anti-rMnSOD-Lp (1:200), was incubated on slides for 30 minutes, followed by incubation with the biotinylated secondary antibody for 30 minutes and peroxidase-labeled streptavidin for 30 minutes. To complete the reaction, a substrate-chromogen solution was used. The smears were counterstained with hematoxylin.

Jurkat cells = test: Jurkat cell penetration, immunofluorescence; type: cell-based, human; conditions: 92 μM, 3 h
Description: Jurkat cells (ATTC, UK) were seeded at density of 150000 cells/well in RPMI media supplemented with 1% Penstrep and 10% FBS in a humidified atmosphere containing 5% CO2 at 37°. The next day, the cells were incubated with 92 μM AVCGTG (SEQ ID NO. 1)-FITC for 3 h in multiwell 24. Subsequently, a cytospin was used to smear cells onto slides. The smears were fixed with 4% paraformaldehyde/PBS for 10 min and rinsed twice with 1×PBS containing 0.1% Triton to remove traces of fixative. Cell samples without AVCGTG (SEQ ID NO. 1)-FITC were used for the background control. After blocking solution with 5% NGS (Normal Goat Serum, VECTOR) 1×PBS+0,1% Triton X-100, was added for 30 minutes. After removing the blocking solution, cells were incubated with primary antibody hexapeptide, diluted 1:200 in blocking solution, overnight at 4° C. The following day, after washing with lx PBS and 0.1% Triton X-100 for 10 minutes, secondary antibody (ALEXA FLUO 488A, SANTACRUZ) diluted 1:400 with 1×PBS and 0.1% Triton X-100 for 2 h was added. The excess of antibody was removed with 3 washes with 1×PBS.
Nuclei were stained with DAPI (1 μg/mL). The slides were mounted and stored in the dark at 4° C. and then observed by fluorescence microscope ZEISS HB050 by using the software Axion Vision Re1.4.8.

white blood cells = test: White blood cell penetration, immunocytochemistry at light microscopy; type: cell-based, human; conditions: healthy subject
Description: as §1, with “Lymphocytes were incubated for five hours in the presence of fluorescinated Hexapeptide 92 μM. A cytospin” for “A cytospin”

AVCGTG (SEQ ID NO. 1)-FITC (AVCGTG-{FITC′})
penetration into the cells (cells): penetrates into the cells
viable sperm showing green fluorescence in the mid piece of the tail (sperm): 100%
penetration by fluorescence optical microscopy (MCF-7 cells): penetrates into the MCF-7 breast cancer cells
internalization by confocal microscopy (MCF-7 cells; listed as FITC-PEP): internalized into the cytoplasm
internalization by confocal microscopy (MCF-7 cells; listed as FTC-peptide): internalized in the cytoplasm
internalization in lymphocytes (Human Normal Lymphocytes; 3 hour incubation): most cells internalized
percentage of labeled cells (Human Normal Lymphocytes; lymphocytes, 92 μM, 3 hours): 95%
penetration into Jurkat cells (Jurkat cells): penetrates in Jurkat cells
penetration into white blood cells (white blood cells): penetrates in white blood cells
